Where two headings read alike, the source gives them in different places.
Tests used:
dopamine autoreceptor = molecular target: T1, dopamine autoreceptor (Rattus norvegicus, UniProt P61169); experiment: Affinity for the dopamine autoreceptor: [3H]-quinpirole binding in homogenized rat striatal brain tissue; details: for IC50: [3H]-quinpirole, rat striatal brain tissue, read-out: IC50 (nM) D2 Quin.; for Ratio antagonist: ratio of D2 Spiper IC50 to D2 Quin. IC50 (LowAg/HighAg, predicts intrinsic activity)
T1 construct: from tissue; host or cells: rat striatal brain tissue homogenate
T1 sequence (P61169 whole entry): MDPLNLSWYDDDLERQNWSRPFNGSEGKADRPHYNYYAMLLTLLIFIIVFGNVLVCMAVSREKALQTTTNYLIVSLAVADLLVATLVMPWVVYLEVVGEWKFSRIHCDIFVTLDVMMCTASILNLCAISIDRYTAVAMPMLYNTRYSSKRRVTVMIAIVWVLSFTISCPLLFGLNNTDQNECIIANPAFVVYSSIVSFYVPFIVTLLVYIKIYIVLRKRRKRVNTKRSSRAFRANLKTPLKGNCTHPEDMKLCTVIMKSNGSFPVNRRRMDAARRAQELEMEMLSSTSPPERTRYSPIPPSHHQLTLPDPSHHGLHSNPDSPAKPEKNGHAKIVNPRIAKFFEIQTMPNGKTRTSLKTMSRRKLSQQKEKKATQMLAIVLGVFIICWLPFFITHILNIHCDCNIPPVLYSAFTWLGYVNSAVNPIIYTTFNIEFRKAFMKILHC
Description: Affinity for the dopamine autoreceptor was established by a modification of the standard experimental test procedure of Seemen and Schaus, European Journal of Pharmacology 203: 105-109, 1991, wherein homogenized rat striatal brain tissue is incubated with [^3H]-quinpirole (Quin.) at various concentrations of test compound, filtered, washed and counted in a Betaplate scintillation counter.

5-HT1a = molecular target: T2, 5-HT1a (Homo sapiens, UniProt P08908); experiment: 5-HT1a binding (method not described)
T2 sequence (P08908 1-422): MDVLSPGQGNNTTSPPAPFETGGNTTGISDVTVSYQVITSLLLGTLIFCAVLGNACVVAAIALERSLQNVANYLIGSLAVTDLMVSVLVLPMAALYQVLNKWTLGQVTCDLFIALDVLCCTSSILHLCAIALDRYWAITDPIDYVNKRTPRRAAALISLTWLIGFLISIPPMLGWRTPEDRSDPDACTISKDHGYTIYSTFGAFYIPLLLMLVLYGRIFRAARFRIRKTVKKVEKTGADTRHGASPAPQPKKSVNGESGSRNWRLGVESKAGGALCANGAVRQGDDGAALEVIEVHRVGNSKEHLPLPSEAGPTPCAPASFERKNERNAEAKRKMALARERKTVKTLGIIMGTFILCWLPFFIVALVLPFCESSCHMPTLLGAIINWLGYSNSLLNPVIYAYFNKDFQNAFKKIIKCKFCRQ

α1 = α1 binding (method not described)

Row | Compound | IC50 (dopamine autoreceptor) [nM] | Ratio antagonist (dopamine autoreceptor) | IC50 (5-HT1a; read-out: IC50 (nM) 5-HT1a.) [nM] | IC50 (α1) [nM] | IC50 (5-HT1a; IC50 (nM) 5-HT1a.) [nM]
1 | Cc1ccc(CNCC2CCc3ccc4c(c3O2)CC(=O)N4)cc1 (centres unmarked) [Example 1d, 2-(4-Methyl-benzylamino-methyl)-3,4,7,9-tetrahydro-2H-pyrano[2,3-e]indol-8-one] | 0.45 | 229 | 10 | 194 | 
2 | O=C1Cc2c(ccc3c2OC(CNCc2ccccc2)CC3)N1 (single isomer, unassigned; (-)) [Example 2b, (-)-2-(benzylamino-methyl)-3,4,7,9-tetrhydro-2H-pyrano[2,3-e]indol-8-one] | 0.27 | 265 | 17.1 | 330 | 
3 | Cc1ccc(CNCC2CCc3ccc4c(c3O2)CC(=O)N4)c(C)c1 (centres unmarked) [Example 1f, 2-(2,4-Dimethyl-benzylamino-methyl)-3,4,7,9-tetrahydo-2H-pyrano[2,3-e]indol-8-one] | 2.62 | 150 |  | 81 | 15
4 | COc1ccc(CNCC2CCc3ccc4c(c3O2)CC(=O)N4)cc1 (centres unmarked) [Example 1c, 2-(4-Methoxy-benzylamino-methyl)-3,4,7,9-tetrahydro-2H-pyrano[2,3-e]indol-8-one] | 0.96 | 307 | 38 | 258 | 
5 | O=C1Cc2c(ccc3c2OC(CNCc2ccccc2)CC3)N1 (centres unmarked) [Example 1a, 2-(Benzylamino-methyl)-3,4,7,9-tetrahydro-2H-pyrano-[2,3-e]indol-8-one] | 0.73 | 194 | 34 | 244 | 
6 | O=C1Cc2c(ccc3c2OC(CNCc2ccccc2)CC3)N1 (single isomer, unassigned; (+)) [Example 2a, (+)-2-(benzylamino-methyl)-3,4,7,9-tetrhydro-2H-pyrano[2,3-e]indol-8-one] | 16.4 | 45 | 330 | 519 | 
7 | O=C1Cc2c(ccc3c2OC(CNCc2ccc(F)cc2)CC3)N1 (centres unmarked) [Example 1b, 2-(4-Fluoro-benzylamino-methyl)-3,4,7,9-tetrahydro-2H-pyrano[2,3-e]indol-8-one] | 0.83 | 375 | 16 | 352 | 
8 | O=C1Cc2c(ccc3c2OC(CNCc2ccc(Cl)cc2)CC3)N1 (centres unmarked) [Example 1e, 2-(4-Chloro-benzylamino-methyl)-3,4,7,9-tetrahydro-2H-pyrano[2,3-e]indol-8-one] | 0.64 | 233 | 7.53 | 184 | 
